Measured values from patent US20240060146A1, “CHEMICAL SUBSTANCE EVALUATION SYSTEM USING MULTICOLOR LIGHT-EMITTING CELLS” (TOHOKU UNIVERSITY, priority 2020, published 2024).
Where a name gives a salt, the structure may show the parent alone.

What was measured:
Format in all cases: cell-based
2H4 cells [1] = experiment: IL-2 Luc LTT: evaluation of chemical substance in 2H4 cells; settings: for IL-2 Luc LTT: 1 h chemical, then 25 nM PMA and 1 μM ionomycin 24 h, class from Min % suppression (nIL2LA) and Min Inh-GAPLA
Procedure: (§1) 2H4 cells were established from Jurkat cells according to the method described in PTL 1. First, for the preparation of 2H4 cells, a plasmid having SLG introduced downstream of the IL-2 promoter, a plasmid having SLR introduced downstream of the G3PDH promoter, and a plasmid having SLO introduced downstream of the INF-γ promoter were prepared as internal standards. These plasmids contained a resistance gene for hygromycin B, puromycin, and neomycin downstream of SLG, SLR, and SLO, respectively. The conditions for drug selection after transfection of the host Jurkat cells were as follows: in the primary selection, the cells were cultured for 1 week in the presence of a drug. In the secondary selection culture, the cells that survived in the primary selection culture were seeded in a 96-well plate at 1 cell/well or 200 cells/well, and cultured for 2 weeks under the same drug conditions. After the secondary selection culture, the cells were subjected to clone selection from the two points of signal intensity and signal induction by drug treatment. The G3PDH promoter SLR was first introduced to establish monochromatic stable cell line Jurkat: G3PDH-SLR #14D1 cells. These cells were used as the parent cell line to introduce the INF-γ promoter SLO, thereby establishing bichromatic stable cell line Jurkat: INFγ-SLO/G3PDH-SLR #2B12 cells. Subsequently, the obtained cells were used as a parent cell line to introduce the IL-2 promoter SLG, thereby establishing trichromatic stable cell line Jurkat IL-2-SLG/INFγ-SLO/G3PDH-SLR #2H4 cells.
The chemical substances listed in Table 1 were evaluated using 2H4 cells. 2H4 cells were seeded in a 96-well plate at 1×10^4/well and treated with each chemical substance for 1 hour, followed by incubating the cells with 25 nM PMA and 1 μM ionomycin for 24 hours. After 24 hours from the treatment with PMA and ionomycin, Tripluck Assay Reagent (manufactured by Toyobo Co., Ltd.) was added, and the amount of luminescence was measured with a Phelios microplate luminometer (manufactured by Atto Corporation). For control, 2H4 cells untreated with a chemical substance were also examined in the same manner. The amount of luminescence of SLG luciferase activity (IL2LA), SLR luciferase activity (GAPLA), and SLO luciferase activity (IFNLA) was measured, and IL-2LA and IFNLA were each normalized by GAPLA and determined to be nIL2LA and nIFNLA, respectively. Thereafter, for the concentration of each chemical substance, “% suppression” and “Inh-GAPLA” were determined according to the following formulas (1) and (2), and the chemical substances were evaluated by using their minimum value (Min % suppression, Min Inh-GAPLA).
In the evaluation, for control, PMA/ionomycin-treated 2H4 cells and PMA/ionomycin-untreated 2H4 cells were also measured for nIL2LA.
(§2) % suppression={(nIL2LA in 2H4 cells untreated with a chemical substance)−(nIL2LA in 2H4 cells treated with a chemical substance)}×100/(nIL2LA in 2H4 cells untreated with a chemical substance) ---(1) Inh-GAPLA=(GAPLA in 2H4 cells treated with a chemical substance)/(GAPLA in 2H4 cells untreated with a chemical substance) ---(2)

2H4 cells [2] = experiment: IL-2 Luc assay: evaluation of chemical substance in 2H4 cells; settings: for IL-2 Luc Assay: 1 h chemical, then PMA/ionomycin, luminescence after six hours, class from Min % suppression of nIL2LA
Procedure: as §1, §2
The chemical substances listed in Table 1 were evaluated using 2H4 cells. 2H4 cells were seeded in a 96-well plate at 2×10^5 cells/50 μl/well and treated with each chemical substance for 1 hour, followed by incubating the cells with 25 nM PMA and 1 µM ionomycin […]. After six hours from the treatment with PMA and ionomycin, Tripluc: Assay Reagent (manufactured by Toyobo Co., Ltd.) was added, and the amount of luminescence was measured with a Phelios microplate luminometer (manufactured by Atto Corporation). For control, 2H4 cells untreated with a chemical substance were also examined in the same manner. The amount of luminescence of SLG luciferase activity (IL2LA), SLR luciferase activity (GAPLA), and SLO luciferase activity (IFNLA) was measured, and IL-2LA and IFNLA were each normalized by GAPLA and determined to be nIL2LA and nIFNLA, respectively. Thereafter, for the concentration of each chemical substance, the value of suppression was calculated according to formula (1) above, and the chemical substances were evaluated by using their minimum value (Min suppression).

2H4 cells [3] = experiment: Evaluation of combination of IL-2 Luc LTT and IL-2 Luc assay; parameters: key: Positive (Pos): If the result is either LCT in the IL-2 Luc LTT or S in the IL-2 Luc assay, or both, the chemical substance is determined to be an immunosuppressive substance.; Negative (Neg): In the case other than the above, the chemical substance is determined to be a non-immunosuppressive substance; settings: LCT in IL-2 Luc LTT or S in IL-2 Luc assay = Pos
Procedure: Positive (Pos): If the result is either LCT in the IL-2 Luc LTT or S in the IL-2 Luc assay, or both, the chemical substance is determined to be an immunosuppressive substance. Negative (Neg): In the case other than the above, the chemical substance is determined to be a non-immunosuppressive substance.

SMILES | Evaluation of Combination (2H4 cells [3]) | IL-2 Luc LTT (2H4 cells [1]) | IL-2 Luc Assay (2H4 cells [2]) | determination in IL-2 Luc LTT (in words) (2H4 cells [1]) | determination by the IL-2 Luc assay alone (in words) (2H4 cells [2])
C[C@H]1O[C@@H](O[C@H]2[C@@H](O)C[C@H](O[C@H]3[C@@H](O)C[C@H](O[C@H]4CC[C@@]5(C)[C@H](CC[C@@H]6[C@@H]5C[C@@H](O)[C@]5(C)[C@@H](C7=CC(=O)OC7)CC[C@]65O)C4)O[C@@H]3C)O[C@@H]2C)C[C@H](O)[C@@H]1O [Digoxin] | Pos | NLCT | S (Min %; suppression ≥35: Suppression (denoted as “S”; determined to have immunosuppressive action)) | – | –
O=C(O)c1cc(/N=N/c2ccc(S(=O)(=O)Nc3ccccn3)cc2)ccc1O [Sulfasalazine (SASP), Sulfasalazine] | Pos | – | S (Min %; suppression ≥35: Suppression (denoted as “S”; determined to have immunosuppressive action)) | – | –
COc1c(C)c2c(c(O)c1C/C=C(\C)CCC(=O)O)C(=O)OC2 [Mycophenolic acid (MPA), Mycophenolic acid] | Pos | LCT (Min % suppression ≤−35 and Min Inh-GAPLA <0.7: Leukocyte toxic (denoted as “LCT”; determined to have cell growth inhibition action and/or metabolic activity inhibition action)) | A (Min suppression ≤−35: Augmentation (denoted as “A”; determined to have immunoaugmenting action)) | inhibit cell growth and/or metabolic activity | determined to not have imnunosuppressive action
Cc1c(OCC(F)(F)F)ccnc1C[S+]([O-])c1nc2ccccc2[nH]1 (stereo not drawn) [Lansoprazole] | Pos | NLCT | S (Min %; suppression ≥35: Suppression (denoted as “S”; determined to have immunosuppressive action)) | – | –
Nc1nc(F)nc2c1ncn2[C@@H]1O[C@H](CO)[C@@H](O)[C@@H]1O [Fludarabine] | Pos | LCT (Min % suppression ≤−35 and Min Inh-GAPLA <0.7: Leukocyte toxic (denoted as “LCT”; determined to have cell growth inhibition action and/or metabolic activity inhibition action)) | A (Min suppression ≤−35: Augmentation (denoted as “A”; determined to have immunoaugmenting action)) | – | –
Nc1ccn([C@@H]2O[C@H](CO)[C@@H](O)C2(F)F)c(=O)n1 [Gemcitabine hydrochloride] | Pos | NLCT | N (−35<Min % suppression <35: No Effect (denoted as “N”; determined to not affect immunity)) | – | –
O=NN(CCCl)C(=O)NCCCl [Carmustine] | Pos | NLCT | S (Min %; suppression ≥35: Suppression (denoted as “S”; determined to have immunosuppressive action)) | – | –
NS(=O)(=O)c1cc2c(cc1Cl)N=CNS2(=O)=O [Chlorothiazide] | Neg | NLCT | N (−35<Min % suppression <35: No Effect (denoted as “N”; determined to not affect immunity)) | – | –
Nc1nc2c(ncn2COCCO)c(=O)[nH]1 [Acyclovir] | Neg | I (−35<Min % suppression <35 and 0.7≤Min Inh-GAPLA: Inconclusive (denoted as “I”; possibly not measurable due to low water solubility)) | N (−35<Min % suppression <35: No Effect (denoted as “N”; determined to not affect immunity)) | – | –
O=c1[nH]cc(F)c(=O)[nH]1 [5-Fluorouracil] | Pos | LCT (Min % suppression ≤−35 and Min Inh-GAPLA <0.7: Leukocyte toxic (denoted as “LCT”; determined to have cell growth inhibition action and/or metabolic activity inhibition action)) | N (−35<Min % suppression <35: No Effect (denoted as “N”; determined to not affect immunity)) | – | –

The next lines start with results.

Evaluation of Combination (2H4 cells [3]) | SMILES | IL-2 Luc LTT (2H4 cells [1]) | IL-2 Luc Assay (2H4 cells [2]) | determination in IL-2 Luc LTT (in words) (2H4 cells [1]) | determination by the IL-2 Luc assay alone (in words) (2H4 cells [2])
Pos | COc1ccc2c(c1)c(CC(=O)O)c(C)n2C(=O)c1ccc(Cl)cc1 [Indomethacin] | – | S (Min %; suppression ≥35: Suppression (denoted as “S”; determined to have immunosuppressive action)) | – | –
Neg | CC[C@H](C)C(=O)O[C@H]1C[C@H](O)C=C2C=C[C@H](C)[C@H](CC[C@@H](O)C[C@@H](O)CC(=O)O)[C@H]21 [Pravastatin] | I (−35<Min % suppression <35 and 0.7≤Min Inh-GAPLA: Inconclusive (denoted as “I”; possibly not measurable due to low water solubility)) | N (−35<Min % suppression <35: No Effect (denoted as “N”; determined to not affect immunity)) | – | –
Pos | COc1cccc2c1C(=O)c1c(O)c3c(c(O)c1C2=O)C[C@@](O)(C(=O)CO)C[C@@H]3O[C@H]1C[C@H](N)[C@H](O)[C@H](C)O1 [Doxorubicin hydrochloride] | LCT (Min % suppression ≤−35 and Min Inh-GAPLA <0.7: Leukocyte toxic (denoted as “LCT”; determined to have cell growth inhibition action and/or metabolic activity inhibition action)) | S (Min %; suppression ≥35: Suppression (denoted as “S”; determined to have immunosuppressive action)) | – | –
Pos | CN(C)c1ccc(O)c2c1C[C@H]1C[C@H]3[C@H](N(C)C)C(O)=C(C(N)=O)C(=O)[C@@]3(O)C(O)=C1C2=O [Minocycline (MC), Minocycline] | NLCT | S (Min %; suppression ≥35: Suppression (denoted as “S”; determined to have immunosuppressive action)) | – | –
Pos | Cc1oncc1C(=O)Nc1ccc(C(F)(F)F)cc1 [Leflunomide] | NLCT | S (Min %; suppression ≥35: Suppression (denoted as “S”; determined to have immunosuppressive action)) | – | –
Pos | NC(=O)c1ncn([C@@H]2O[C@H](CO)[C@@H](O)[C@H]2O)c1O [Mizoribine (MZR), Mizoribine] | LCT (Min % suppression ≤−35 and Min Inh-GAPLA <0.7: Leukocyte toxic (denoted as “LCT”; determined to have cell growth inhibition action and/or metabolic activity inhibition action)) | N (−35<Min % suppression <35: No Effect (denoted as “N”; determined to not affect immunity)) | inhibit cell growth and/or metabolic activity | determined to not have imnunosuppressive action
Pos | CC(=O)Nc1ccc(O)cc1 [Acetaminophen (AA), Acetaminophen] | – | A (Min suppression ≤−35: Augmentation (denoted as “A”; determined to have immunoaugmenting action)) | – | –
Pos | COc1cc([C@@H]2c3cc4c(cc3[C@@H](O[C@@H]3O[C@@H]5CO[C@@H](C)O[C@H]5[C@H](O)[C@H]3O)[C@H]3COC(=O)[C@H]23)OCO4)cc(OC)c1O [Etoposide] | – | N (−35<Min % suppression <35: No Effect (denoted as “N”; determined to not affect immunity)) | – | –
